# Data published in the supplement of paper PMC10307832.
# Key:
# Test in all cases: relative viability (nuclei count vs DMSO), 5 days (fraction); higher = more cells survive
# Idelalisib + Bortezomib = compound: CC[C@H](Nc1ncnc2[nH]cnc12)c1nc2cccc(F)c2c(=O)n1-c1ccccc1 [Idelalisib] + CC(C)C[C@H](NC(=O)[C@H](Cc1ccccc1)NC(=O)c1cnccn1)B(O)O [Bortezomib] (partner 0.002 µM)
# In short: (§1)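 Relative viability was taken as the ratio of nuclei in treated wells to nuclei in vehicle wells. Lung cancer cell lines in 1536-well plates received compounds by pin tool one day after seeding, either one drug alone or a fixed anchor-drug dose plus five library-drug doses (not always all listed) in √10 steps. Nuclei were counted on 4× images after 5 days of treatment, and values are medians of duplicate plates.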
# Idelalisib + Luminespib = compound: CC[C@H](Nc1ncnc2[nH]cnc12)c1nc2cccc(F)c2c(=O)n1-c1ccccc1 [Idelalisib] + CCNC(=O)c1noc(-c2cc(C(C)C)c(O)cc2O)c1-c1ccc(CN2CCOCC2)cc1 [Luminespib] (partner 0.01 µM)
# In short: as §1
# Idelalisib + Tozasertib = compound: CC[C@H](Nc1ncnc2[nH]cnc12)c1nc2cccc(F)c2c(=O)n1-c1ccccc1 [Idelalisib] + Cc1cc(Nc2cc(N3CCN(C)CC3)nc(Sc3ccc(NC(=O)C4CC4)cc3)n2)n[nH]1 [Tozasertib] (partner 0.1 µM)
# In short: as §1
# Pemetrexed + AZD7762 = compound: Nc1nc2[nH]cc(CCc3ccc(C(=O)N[C@@H](CCC(=O)O)C(=O)O)cc3)c2c(=O)[nH]1 [Pemetrexed] + NC(=O)Nc1cc(-c2cccc(F)c2)sc1C(=O)N[C@H]1CCCNC1 [AZD7762] (partner 0.2 µM)
# In short: as §1
Cell Line,relative viability (Idelalisib + Bortezomib; first compound 0.04 µM),relative viability (Idelalisib + Bortezomib; first compound 0.1265 µM),relative viability (Idelalisib + Bortezomib; first compound 0.4 µM),relative viability (Idelalisib + Bortezomib; first compound 1.265 µM),relative viability (Idelalisib + Bortezomib; first compound 4 µM),relative viability (Idelalisib + Luminespib; first compound 0.04 µM),relative viability (Idelalisib + Luminespib; first compound 0.1265 µM),relative viability (Idelalisib + Luminespib; first compound 0.4 µM),relative viability (Idelalisib + Luminespib; first compound 1.265 µM),relative viability (Idelalisib + Luminespib; first compound 4 µM),relative viability (Idelalisib + Tozasertib; first compound 0.04 µM),relative viability (Idelalisib + Tozasertib; first compound 0.1265 µM),relative viability (Idelalisib + Tozasertib; first compound 0.4 µM),relative viability (Idelalisib + Tozasertib; first compound 1.265 µM),relative viability (Idelalisib + Tozasertib; first compound 4 µM),relative viability (Pemetrexed + AZD7762; first compound 0.002 µM),relative viability (Pemetrexed + AZD7762; first compound 0.006325 µM),relative viability (Pemetrexed + AZD7762; first compound 0.02 µM),relative viability (Pemetrexed + AZD7762; first compound 0.06325 µM),relative viability (Pemetrexed + AZD7762; first compound 0.2 µM)
BEN,0.985,0.709,0.756,0.803,0.732,0.333,0.459,0.232,0.416,0.242,0.479,0.562,0.542,0.488,0.413,0.746,0.849,0.765,0.638,0.648
NCI-H3122,1.03,1.04,1.09,1.09,1.04,0.0784,0.0938,0.115,0.0796,0.0833,0.377,0.372,0.41,0.4,0.399,1.04,0.863,0.966,0.4,0.276
LCLC-97TM1,0.357,0.76,,0.569,0.835,0.82,0.738,0.708,0.818,0.607,0.299,0.172,0.201,0.207,0.207,0.338,0.164,0.273,0.243,0.127
EMC-BAC-2,1.12,1.15,1.05,1.13,1.04,1.34,1.24,1.03,1.25,1.13,0.313,0.277,0.296,0.276,0.281,1.1,0.944,1.14,0.948,0.69
A-427,1.03,0.903,0.883,1.05,0.913,0.833,0.857,0.744,0.879,0.783,0.222,0.222,0.219,0.196,0.181,0.798,0.708,0.818,0.755,0.733
NCI-H650,0.693,0.998,0.735,1.13,0.662,0.894,0.703,0.648,0.869,0.765,0.748,0.767,0.635,0.803,0.69,0.966,0.939,,0.83,0.931
NCI-H1755,0.931,0.939,0.937,1.05,0.85,0.331,0.339,0.449,0.699,0.293,0.541,0.616,0.483,0.488,0.489,0.42,0.453,0.483,0.393,0.295
NCI-H2085,0.916,1.08,0.983,1.06,0.848,0.422,0.409,0.374,0.487,0.257,0.915,0.779,0.8,0.641,0.692,0.921,0.936,1.04,0.959,0.916
HOP-62,0.72,0.796,,0.797,0.997,1.03,0.875,0.83,1.08,0.926,0.415,0.408,0.392,0.436,0.326,0.485,0.534,0.45,0.762,0.483
